In the supplement of paper PMC5412046:
Structures can show the parent of a compound that is named as a salt.

Assays:
[1] = test system: SB.msgc-1; test: viability at highest tested concentration (MAXR) relative to DMSO; higher = less cytotoxic; conditions: SB.msgc-1 (sporadic gastric cancer)
Summary of the method: (§1)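 Using a pintool, 23 nL of compound in DMSO was transferred at 11 threefold-diluted concentrations onto patient-derived gastric cancer cells, hereditary or sporadic, plated at 500 cells in 5 μL medium per 1536 well. CellTiter-Glo luminescence was read after 48 h. Each value is viability normalised to DMSO, either at the highest concentration or as trapezoidal area under the curve.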

[2] = test system: SB.mhdgc-1; test: as above; conditions: SB.mhdgc-1 (hereditary c.1380delA CDH1 gastric cancer)
Summary of the method: as §1

[3] = test system: SB.msgc-1; test: area under the dose-response curve of % viability (trapezoidal, 11 doses) (% viability x log10 concentration); higher = less cytotoxic; conditions: SB.msgc-1 (sporadic gastric cancer)
Summary of the method: as §1

[4] = test system: SB.mhdgc-1; test: as above; conditions: SB.mhdgc-1 (hereditary c.1380delA CDH1 gastric cancer)
Summary of the method: as §1

Row | SMILES | viability [1] [%] | viability [2] [%] | area under the dose-response curve [3] | area under the dose-response curve [4]
1 | O=C1NC(=O)/C(=C/c2cccc(C(F)(F)F)c2)S1 [SMI-4a] (top concentration 46.0829 µM) | 50.3 | 69.4 | 509 | 551
2 | C[C@]12CC[C@H]3[C@@H](C\C=C/4C[C@@H](O)CC[C@]34C)[C@@H]1CCC2=O [Dehydroepiandrosterone] (top concentration 46.0829 µM) | 38.2 | 32 | 530 | 465
3 | NC1CCC(Nc2nc(Nc3ccc(C(=O)N4CCCCC4)cc3)c3ncn(-c4cccc(F)c4)c3n2)CC1 (configuration not stated) [Purfalcamine] (top concentration 46.0829 µM) | 92.6 | 122 | 547 | 624
4 | O=C(CCCN1CCN(c2ccc(F)cc2)CC1)NC1c2ccccc2CSc2ccccc21 (configuration not stated) [Monatepil] (top concentration 46.0829 µM) | 49.1 | 68.5 | 486 | 597
5 | CCCCCCNC(=O)N1\C=C(F)/C(=O)NC1=O [Carmofur] (top concentration 46.0829 µM) | 50.4 | 47.9 | 485 | 442
6 | COc1cc2c(cc1OC)C1CC(=O)C(CC(C)C)CN1CC2 (configuration not stated) [Tetrabenazine] (top concentration 46.0829 µM) | 98.4 | 102 | 538 | 566
7 | ClC/1=C(NCCN2CCOCC2)/C(=O)C3=C(C=CC=N3)C1=O [DA-3003-1] (top concentration 46.0829 µM) | 0.756 | 0.994 | 398 | 356
8 | CCCCCCOC(=O)/N=C(/N)c1ccc(NCc2nc3cc(C(=O)N(CCC(=O)OCC)c4ccccn4)ccc3n2C)cc1 [BIBR 1048] (top concentration 46.0829 µM) | 35.7 | 37.6 | 500 | 459
9 | CCN(CC)CCOc1ccc(Cc2ccccc2)cc1 [Tesmilifene hydrochloride] (top concentration 46.0829 µM) | 40.1 | 63.8 | 330 | 584
10 | O=C(c1cncc(Br)c1)N1CCC(N2CCCC2)CC1 [UNC669] (top concentration 46.0829 µM) | 106 | 121 | 516 | 563
11 | CCOc1cc(/C=C2/C(=O)N(c3ccccc3)N=C2C)cc(Cl)c1OCC(=O)OC (top concentration 46.0829 µM) | 78.5 | 42.6 | 492 | 378
12 | COc1cc2c(N3CCN(C(=O)Nc4ccc(OC(C)C)cc4)CC3)ncnc2cc1OCCCN1CCCCC1 [Tandutinib] (top concentration 46.0829 µM) | 60.2 | 7.84 | 478 | 342
13 | Clc2cccc(Cl)c2\N=C1/NCCN1 [Clonidine] (top concentration 46.0829 µM) | 130 | 92.5 | 537 | 591
14 | COc1cc([C@@H]2c3cc4c(cc3[C@@H](O)C3COC(=O)C32)OCO4)cc(OC)c1O (some centres not stated) [4-Demethylepipodophyllotoxin] (top concentration 46.0829 µM) | 50.3 | 44.7 | 377 | 357
15 | O=C(Nc1cccc2c(=O)cc(-c3nnn[nH]3)oc12)c1ccc(OCCCCc2ccccc2)cc1 [Pranlukast hydrate] (top concentration 46.0829 µM) | 30.2 | 9.85 | 316 | 499
16 | CO[C@@H](C(=O)N1Cc2[nH]nc(NC(=O)c3ccc(N4CCN(C)CC4)cc3)c2C1)c1ccccc1 [Danusertib] (top concentration 46.0829 µM) | 26.3 | 23.2 | 469 | 387
17 | CC\12CCC(=O)\C=C1CCC3C2CCC4(C)C3CCC4(O)C#C (configuration not stated) [Ethisterone] (top concentration 46.0829 µM) | 92.5 | 67.7 | 499 | 444
18 | C[C@H]([C@H]1C\C(=C(CO)/C(=O)O1)C)[C@H]2CC[C@H]3[C@@H]4C[C@H]5O[C@]56[C@@H](O)\C=C/C(=O)[C@]6(C)[C@H]4CC[C@]23C [Withaferin A] (top concentration 46.0829 µM) | 0.418 | 1.49 | 383 | 364
19 | CC(C)(C)NC(=O)[C@@H]1CN(Cc2cccnc2)CCN1C[C@@H](O)C[C@@H](Cc1ccccc1)C(=O)N[C@H]1c2ccccc2C[C@H]1O.O=S(=O)(O)O [Indinavir] (top concentration 46.0829 µM) | 52.7 | 37.1 | 473 | 347
20 | CCCCn1c(=O)n(Cc2ccccc2F)c(=O)c2nc(Cc3ccc(NC(C)=O)cc3)[nH]c21 [cPEPCK inhibitor] (top concentration 46.0829 µM) | 61 | 54.1 | 411 | 421
21 | O=C(O)c1cccnc1 [Niacin] (top concentration 46.0829 µM) | 82.7 | 74.1 | 487 | 521
22 | Cc1ncc([N+](=O)[O-])n1CCO [Metronidazole] (top concentration 46.0829 µM) | 115 | 98.6 | 522 | 483
23 | COc1cc(O)c2c(c1)C1OC1C[C@H](O)[C@H](O)C(=O)/C=C\C[C@H](C)OC2=O (some centres not stated) [Hypothemycin] (top concentration 46.0829 µM) | 14.6 | 5.84 | 494 | 394
